Source: patent publication US20110136801A1, “Novel Compounds” (Dainippon Sumitomo Pharma Co. Ltd., priority 2009, published 2011)

Target: T1, human TLR7 (Homo sapiens, UniProt Q9NYK1)
T1 construct: expressed in transfected cells; host or cells: HEK293 cell line stably expressing the pNiFty2-SEAP reporter plasmid; TLR7 in pUNO vector, blasticidin selection
T1 sequence (Q9NYK1 27-1049): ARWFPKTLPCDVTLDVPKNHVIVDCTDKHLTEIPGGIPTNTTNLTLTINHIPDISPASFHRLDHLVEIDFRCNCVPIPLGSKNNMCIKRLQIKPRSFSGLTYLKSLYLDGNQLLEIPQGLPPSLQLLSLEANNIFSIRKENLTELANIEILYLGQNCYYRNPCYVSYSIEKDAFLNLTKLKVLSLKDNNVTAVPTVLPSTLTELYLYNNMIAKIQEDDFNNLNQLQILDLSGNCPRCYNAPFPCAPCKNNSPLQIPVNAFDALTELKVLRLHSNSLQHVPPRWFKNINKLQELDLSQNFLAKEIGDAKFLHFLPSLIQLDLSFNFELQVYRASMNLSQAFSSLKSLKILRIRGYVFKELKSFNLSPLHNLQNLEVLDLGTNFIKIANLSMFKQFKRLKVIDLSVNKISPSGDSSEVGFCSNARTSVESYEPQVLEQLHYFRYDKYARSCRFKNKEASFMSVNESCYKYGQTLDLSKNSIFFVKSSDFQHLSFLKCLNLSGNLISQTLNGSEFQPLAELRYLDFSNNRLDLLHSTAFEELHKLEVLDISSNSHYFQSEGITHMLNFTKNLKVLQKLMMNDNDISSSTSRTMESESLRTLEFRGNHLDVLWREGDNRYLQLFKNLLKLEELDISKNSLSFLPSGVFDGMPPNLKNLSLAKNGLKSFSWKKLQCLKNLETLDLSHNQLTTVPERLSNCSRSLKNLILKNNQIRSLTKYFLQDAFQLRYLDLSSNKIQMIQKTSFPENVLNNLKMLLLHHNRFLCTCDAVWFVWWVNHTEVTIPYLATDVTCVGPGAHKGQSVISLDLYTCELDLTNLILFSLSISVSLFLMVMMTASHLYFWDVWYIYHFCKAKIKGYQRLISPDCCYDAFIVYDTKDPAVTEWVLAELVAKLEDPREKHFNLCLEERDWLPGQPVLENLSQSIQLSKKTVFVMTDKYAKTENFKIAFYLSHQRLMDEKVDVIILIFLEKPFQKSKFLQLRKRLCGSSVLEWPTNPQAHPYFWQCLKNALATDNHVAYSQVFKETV
Test: Human TLR7 Assay (SEAP reporter in HEK293 cells);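 further: Read-out is secreted alkaline phosphatase made under an NFkB/ELAM-1 composite promoter, reporting TLR7-triggered NFkB activation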
Type: cell-based
Settings: HEK293 cell line expressing human TLR7 and pNiFty2-SEAP reporter, overnight incubation at 37° C., 0.1% DMSO; read-out: hTLR7 EC50
Excerpt: The most common variant sequence of human TLR7 (represented by the EMBL sequence AF240467) was cloned into the mammalian cell expression vector pUNO and transfected into a HEK293 cell line already stably expressing the pNiFty2-SEAP reporter plasmid; integration of the reporter gene was maintained by selection with the antibiotic zeocin. Transfectants with stable TLR7 expression were selected using the antibiotic blasticidin. In this reporter cell-line, expression of secreted alkaline phosphatase (SEAP) is controlled by an NFkB/ELAM-1 composite promoter comprising five NFkB sites combined with the proximal ELAM-1 promoter. TLR signaling leads to the translocation of NFkB and activation of the promoter results in expression of the SEAP gene. TLR7-specific activation was assessed by determining the level of SEAP produced following overnight incubation of the cells at 37° C. with the standard compound in the presence of 0.1% (v/v) dimethylsulfoxide (DMSO). Concentration dependent induction of SEAP production by compounds was expressed as the concentration of compound which produced half of the maximal level of SEAP induction for that compound (EC50).

| Structure (SMILES) | EC50 |
| --- | --- |
| CCCCc1nc2c(N)nc3ccccc3c2n1CCCN(Cc1ccc(OCC(=O)OC)cc1)C(=O)CN(C)C [Example 5, Methyl (4-{[[3-(4-amino-2-butyl-1H-imidazo[4,5-c]quinolin-1-yl)propyl](N,N-dimethylglycyl)amino]methyl}phenoxy)acetate] | 247 nM |
| CCCCc1nc2c(N)nc3ccccc3c2n1CCCN(Cc1ccc(OCC(=O)OC)cc1)C(=O)CN1CCCCC1 [Example 6, Methyl (4-{[[3-(4-amino-2-butyl-1H-imidazo[4,5-c]quinolin-1-yl)propyl](piperidin-1-ylacetyl)amino]methyl}phenoxy)acetate] | 169 nM |
| CCCCc1nc2c(N)nc3ccccc3c2n1CCCN(Cc1ccc(OCC(=O)OC)cc1)C(=O)CN1CCN(C)CC1 [Example 7, Methyl [4-({[3-(4-amino-2-butyl-1H-imidazo[4,5-c]quinolin-1-yl)propyl][(4-methylpiperazin-1-yl)acetyl]amino}methyl)phenoxy]acetate] | 633 nM |
| CCCCc1nc2c(N)nc3ccccc3c2n1CCCN(Cc1ccc(OCC(=O)OC)cc1)C(=O)CN1CCN(CCOC)CC1 [Example 8, Methyl {4-[([3-(4-amino-2-butyl-1H-imidazo[4,5-c]quinolin-1-yl)propyl]{[4-(2-methoxyethyl)piperazin-1-yl]acetyl}amino)methyl]phenoxy}acetate] | 904 nM |
| CCCCc1nc2c(N)nc3ccccc3c2n1CCCN(Cc1cccc(OCC(=O)OC)c1)C(=O)CN1CCN(CCOC)CC1 [Example 12, Methyl {3-[([3-(4-amino-2-butyl-1H-imidazo[4,5-c]quinolin-1-yl)propyl]{[4-(2-methoxyethyl)piperazin-1-yl]acetyl}amino)methyl]phenoxy}acetate] | 432 nM |
| CCCCc1nc2c(N)nc3ccccc3c2n1CCCN(Cc1cccc(OCC(=O)OC)c1)C(=O)CN1CCCC1 [Example 13, Methyl (3-{[[3-(4-amino-2-butyl-1H-imidazo[4,5-c]quinolin-1-yl)propyl](pyrrolidin-1-ylacetyl)amino]methyl}phenoxy)acetate] | 136 nM |
| CCCCc1nc2c(N)nc3ccccc3c2n1CCCN(Cc1cccc(OCC(=O)OC)c1)C(=O)CN(CC)CC [Example 14, Methyl (3-{[[3-(4-amino-2-butyl-1H-imidazo[4,5-c]quinolin-1-yl)propyl](N,N-diethylglycyl)amino]methyl}phenoxy)acetate] | 73.6 nM |
| COCCc1nc2c(N)nc3ccccc3c2n1CCCNCc1cccc(OCC(=O)OC)c1 [Example 15, Methyl (3-{[[3-(4-amino-2-(2-methoxyethyl)-1H-imidazo[4,5-c]quinolin-1-yl)propyl]amino]methyl}phenoxy)acetate] | 181 nM |
| COCCc1nc2c(N)nc3ccccc3c2n1CCCN(Cc1cccc(OCC(=O)OC)c1)C(=O)CN(C)C [Example 17, Methyl (3-{[[3-(4-amino-2-(2-methoxyethyl)-1H-imidazo[4,5-c]quinolin-1-yl)propyl](N,N-dimethylglycyl)amino]methyl}phenoxy)acetate] | 349 nM |
| COCCc1nc2c(N)nc3ccccc3c2n1CCCN(Cc1cccc(OCC(=O)OC)c1)C(=O)CN1CCN(C)CC1 [Example 18, Methyl (3-{[[3-(4-amino-2-(2-methoxyethyl)-1H-imidazo[4,5-c]quinolin-1-yl)propyl][(4-methylpiperazin-1-yl)acetyl]amino]methyl}phenoxy)acetate] | 1270 nM |

Other lines, results leading:

| EC50 | Structure (SMILES) |
| --- | --- |
| 178 nM | COCCc1nc2c(N)nc3ccccc3c2n1CCCN(Cc1cccc(OCC(=O)OC)c1)C(=O)CN1CCCCC1 [Example 19, Methyl (3-{[[3-(4-amino-2-(2-methoxyethyl)-1H-imidazo[4,5-c]quinolin-1-yl)propyl](piperidin-1-ylacetyl)amino]methyl}phenoxy)acetate] |
| 787 nM | CCCCc1nc2c(N)nc3ccccc3c2n1CCCN(CCCN1CCOCC1)Cc1cccc(OCC(=O)OC)c1 [Example 21, Methyl (3-{[[3-(4-amino-2-butyl-1H-imidazo[4,5-c]quinolin-1-yl)propyl](3-morpholinopropyl)amino]methyl}phenoxy)acetate] |
| 188 nM | COCCc1nc2c(N)nc3ccccc3c2n1CCCNC(=O)N(CCCN(C)C)Cc1ccc(OCC(=O)OC)cc1 [Example 22, Methyl [4-({[({3-[4-amino-2-(2-methoxyethyl)-1H-imidazo[4,5-c]quinolin-1-yl]propyl}amino)carbonyl][3-(dimethylamino)propyl]amino}methyl)phenoxy]acetate] |
| 58.7 nM | CCOC(=O)COc1cccc(CN(CCCn2c(CCOC)nc3c(N)nc4ccccc4c32)C(=O)CN(CC)CC)c1 [Example 25, Ethyl 2-{3-[(N-{3-[4-amino-2-(2-methoxyethyl)-1H-imidazo[4,5-c]quinolin-1-yl]propyl}-2-(diethylamino)acetamido)methyl]phenoxy}acetate] |
| 54.6 nM | CCCOC(=O)COc1cccc(CN(CCCn2c(CCOC)nc3c(N)nc4ccccc4c32)C(=O)CN(CC)CC)c1 [Example 26, Propyl 2-{3-[(N-{3-[4-amino-2-(2-methoxyethyl)-1H-imidazo[4,5-c]quinolin-1-yl]propyl}-2-(diethylamino)acetamido)methyl]phenoxy}acetate] |
| 49.9 nM | CCN(CC)CC(=O)N(CCCn1c(CCOC)nc2c(N)nc3ccccc3c21)Cc1cccc(OCC(=O)OCC(C)C)c1 [Example 28, Isobutyl 2-{3-[(N-{3-[4-amino-2-(2-methoxyethyl)-1H-imidazo[4,5-c]quinolin-1-yl]propyl}-2-(diethylamino)acetamido)methyl]phenoxy}acetate] |
| 174 nM | CCN(CC)CC(=O)N(CCCn1c(CCOC)nc2c(N)nc3ccccc3c21)Cc1cccc(OCC(=O)OCCOC)c1 [Example 29, 2-Methoxyethyl 2-{3-[(N-{3-[4-amino-2-(2-methoxyethyl)-1H-imidazo[4,5-c]quinolin-1-yl]propyl}-2-(diethylamino)acetamido)methyl]phenoxy}acetate] |
| 1460 nM | CCN(CC)CC(=O)N(CCCn1c(CCOC)nc2c(N)nc3ccccc3c21)Cc1cccc(OCC(=O)OCCO)c1 [Example 30, 2-Hydroxyethyl 2-{3-[(N-{3-[4-amino-2-(2-methoxyethyl)-1H-imidazo[4,5-c]quinolin-1-yl]propyl}-2-(diethylamino)acetamido)methyl]phenoxy}acetate] |
| 150 nM | CCOC(=O)COc1cccc(CN(CCCn2c(CCOC)nc3c(N)nc4ccccc4c32)C(=O)CN2CCCC2)c1 [Example 31, Ethyl 2-{3-[(N-{3-[4-amino-2-(2-methoxyethyl)-1H-imidazo[4,5-c]quinolin-1-yl]propyl}-2-(pyrrolidin-1-yl)acetamido)methyl]phenoxy}acetate] |
| 177 nM | CCOC(=O)COc1cccc(CN(CCCn2c(CCOC)nc3c(N)nc4ccccc4c32)C(=O)CN2CCCCC2)c1 [Example 32, Ethyl 2-{3-[(N-{3-[4-amino-2-(2-methoxyethyl)-1H-imidazo[4,5-c]quinolin-1-yl]propyl}-2-(piperidin-1-yl)acetamido)methyl]phenoxy}acetate] |
| 177 nM | CCOC(=O)COc1cccc(CN(CCCn2c(CCOC)nc3c(N)nc4ccccc4c32)C(=O)CN(C)C)c1 [Example 33, Ethyl 2-{3-[(N-{3-[4-amino-2-(2-methoxyethyl)-1H-imidazo[4,5-c]quinolin-1-yl]propyl}-2-(dimethylamino)acetamido)methyl]phenoxy}acetate] |
